Consider one substance from paper PMC8708390, “Fatty Acid Modification of the Anticancer Peptide LVTX-9 to Enhance Its Cytotoxicity against Malignant Melanoma Cells” (Toxins, 2021).

For one series, the system named is B16-F10 cells. The experiment in a line: LDH leakage assay. The conditions noted are these: 25 μM, 24 h, absorbance 490 nm, n = 3. It counts as cell-based, mouse. How it is done: At first, the B16-F10 cells were cultured in 96-well plates for 24 h at approximately 2 × 10^3 cells/well. Subsequently, the cells were treated for 24 h with LVTX-9 or LVTX-9-C18 with a series of concentration gradients. LDH leakage detection was detected using an LDH Cytotoxicity Assay Kit according to the manufacturer’s instructions (Beyotime, Shanghai, China. C0017). The absorption was measured using an Absorbance Microplate Reader (BioTek Instruments) at 490 nm. The LDH release (%) of peptides was calculated by GraphPad prism 5.0.
A general note: LDH leaks from cells whose membrane has failed.

Another series concerns erythrocytes. The experiment in a line: Hemolytic activity. It counts as cell-based. The conditions noted are these: 1% RBC in PBS, 30 min at 37 °C, absorbance 450 nm, 0.1% Triton-X 100 positive control. How it is done:
The hemolytic activity levels of LVTX-9 and LVTX-9-C18 were confirmed as follows. Red blood cells (RBC) were washed with sterile PBS and centrifuged for 5 min at 1000 rpm. The supernatant was removed, and cells were resuspended in PBS at a final concentration of 1% (5 × 10^6/mL). The diluted RBC suspension (50 µL) was mixed with PBS (negative control), 0.1% Triton-X 100 (positive control), and LVTX-9 or LVTX-9-C18 with various concentrations at a 1:1 ratio. The mixtures were incubated for 30 min at 37 °C, then centrifuged for 5 min at 12,000 rpm. The supernatant (90 µL) was added to a new 96-well plate to measure the absorbance at 450 nm using a microplate reader, and we produced hemolytic activity curves by GraphPad prism 5.0.

A short description of series [1]: Dynamic light scattering (hydrodynamic size, PDI, zeta potential). The series is classed as physicochemical. The conditions noted are these: 100 µM in ultrapure water, 25 °C, repeated three times. How it is done:
(§1) Dynamic light scattering (DLS) of Zetasizer Nano ZSP (Malvern Instruments, Malvern, UK) apparatus was used to determine the hydrodynamic size and zeta potential of LVTX-9 and LVTX-9-C18. The peptides concentrations were diluted to 100 µM with ultrapure water with a final volume of 1 mL. The procedure ran at 25 °C, with each experiment repeated three times. The secondary structures of LVTX-9 and LVTX-9-C18 were determined to be in line with the previous protocol. The peptide concentrations were then diluted to 100 µM with ultrapure water and 100 mM of SDS was added in a final volume of 250 μL. The procedure was carried out at 25 °C. CD spectra were recorded between 180 nm and 280 nm on a Jasco J-815 CD spectrometer.

The nature of series [2]: Circular dichroism secondary structure. As to conditions: 100 µM, 25 °C, 180-280 nm. It counts as physicochemical. The method, then:
as §1
Background: Circular dichroism is the unequal absorption of left and right circularly polarised light.

Where no end group is shown, it is not given here.

On to “ASIGALIQKAIALIKAKAA-NH2 (C-terminus assumed) [LVTX-9]”, for which the “LDH release at 25 μM” value in the series on B16-F10 cells is ~ 2%. The “hemolytic activity at 200 μM” value with erythrocytes is recorded as “almost no hemolytic activity”. Moreover, the “PDI (hydrodynamic size, DLS)” value in series [1] is on record as 0.65 ± 0.0481. Moreover, the “secondary structure (CD) in 100 mM of SDS” value in series [2] (100 mM SDS) is given as “α-helical conformation”. For the same substance, the “secondary structure (CD) in ultrapure water” value in series [2] (ultrapure water) is reported as “random coil conformation”.
